Results published in PubChem BioAssay AID276 (DTP/NCI, 2004).
“And” between values parts separate entries of the source, which are not always exact repeats. Equal entries are not always repeated. Inconclusive results and toxic doses are left out. Rule for the calls: active = survival T/C of 150% or more; inactive = T/C below 125% in these data.

Test system: B6C3F1 mice, Lewis lung carcinoma iv, survival T/C
Assay: NCI In Vivo Anticancer Drug Screen. Data for tumor model Lewis Lung Carcinoma (intravenous) in B6C3F1 mice
Conditions: endpoint: median survival time, schedule: Q01DX009 (ip), higher = longer survival
Procedure: The antitumor activity of compounds was measured in mice bearing transplantable tumors. Survival or tumor size were measured and the results are expressed as the measurement made in the treated group (T) divided by the measurement made in the vehicle treated control group (C). The tumor model used in this assay is Lewis Lung Carcinoma (intravenous) in B6C3F1 mice

[1] = dose: 6.25 mg/kg/injection, vehicle: saline with Tween-80
[2] = dose: 12.5 mg/kg/injection, vehicle: saline with Tween-80
[3] = dose: 25.0 mg/kg/injection, vehicle: saline with Tween-80
[4] = dose: 50.0 mg/kg/injection, vehicle: saline with Tween-80
[5] = dose: 100.0 mg/kg/injection, vehicle: saline with Tween-80
[6] = dose: 200.0 mg/kg/injection, vehicle: saline with Tween-80
[7] = dose: 3.12 mg/kg/injection, vehicle: saline with Tween-80
[8] = dose: 25.0 mg/kg/injection, vehicle: saline
[9] = dose: 50.0 mg/kg/injection, vehicle: saline
[10] = dose: 3.12 mg/kg/injection, vehicle: saline
[11] = dose: 6.25 mg/kg/injection, vehicle: saline
[12] = dose: 12.5 mg/kg/injection, vehicle: saline

Measured: T/C

CCOC(=O)N1Cc2cc3cc(Cl)ccc3nc2C1
inactive: dose: 7.5 mg/kg/injection, vehicle: saline with Tween-80 100 % of control | dose: 15.0 mg/kg/injection, vehicle: saline with Tween-80 98 % of control | dose: 30.0 mg/kg/injection, vehicle: saline with Tween-80 100 % of control | dose: 60.0 mg/kg/injection, vehicle: saline with Tween-80 100 % of control | dose: 120.0 mg/kg/injection, vehicle: saline with Tween-80 105 % of control

CC(=O)OC1=NC(C)c2c1cc(OC(C)=O)[nH]c2=O (stereo not drawn)
inactive: dose: 12.5 mg/kg/injection, vehicle: Klucel (hydroxypropylcellulose) (HPC) 102 % of control | dose: 25.0 mg/kg/injection, vehicle: Klucel (hydroxypropylcellulose) (HPC) 98 % of control | dose: 50.0 mg/kg/injection, vehicle: Klucel (hydroxypropylcellulose) (HPC) 95 % of control

Cc1ccc2c(c1)N=C(Nc1ccccc1)N=S2(C)=O (stereo not drawn)
inactive: [1] 99 % of control | [2] 92 % of control | [3] 93 % of control | [4] 95 % of control | [5] 108 % of control | [6] 119 % of control

O=C1NC(O)c2ccccc2O1 (stereo not drawn)
inactive: dose: 25.0 mg/kg/injection, vehicle: suspension in saline 106 % of control | dose: 50.0 mg/kg/injection, vehicle: suspension in saline 89 % of control | dose: 100.0 mg/kg/injection, vehicle: suspension in saline 107 % of control | dose: 200.0 mg/kg/injection, vehicle: suspension in saline 97 % of control

C[Si](C)(CCl)N[Si](C)(C)CCl
inactive: [3] 104 % of control | [4] 99 % of control | [5] 107 % of control | dose: 400.0 mg/kg/injection, vehicle: saline with Tween-80 105 % of control

O/N=C/c1ccccc1O.O/N=C/c1ccccc1O.[Cu]
inactive: dose: 1.56 mg/kg/injection, vehicle: saline with Tween-80 113 % of control | [7] 100 % of control | [1] 104 % of control | [2] 96 % of control | [3] 104 % of control | [4] 96 % of control

CCc1ccc(C2=C(O)C(=O)C(c3ccc(CC)cc3)=C(O)C2=O)cc1
inactive: [7] 111 % of control | dose: 6.0 mg/kg/injection, vehicle: saline with Tween-80 105 % of control | [1] 111 % of control | dose: 12.0 mg/kg/injection, vehicle: saline with Tween-80 103 % of control | [2] 117 % of control | [3] 114 % of control and 88 % of control | [4] 103 % of control | [5] 101 % of control

CCN(CC)CCOCCO
inactive: dose: 12.0 mg/kg/injection, vehicle: saline 96 % of control | [8] 99 % of control | [9] 99 % of control | dose: 100.0 mg/kg/injection, vehicle: saline 101 % of control

CCCCOCN(COCCCC)C12CC3CC(CC(C3)C1)C2
inactive: [2] 101 % of control | [3] 111 % of control | [4] 97 % of control | [5] 106 % of control | [6] 100 % of control

OCCN1CCN(CC/C=C2/c3ccccc3Sc3ccc(Cl)cc32)CC1
inactive: dose: 1.56 mg/kg/injection, vehicle: saline 99 % of control | [10] 103 % of control | [11] 98 % of control | [12] 103 % of control | [8] 110 % of control

CC12CC(C(=O)O)C3(O)CC(C)(C1)CC(C)(C2)C3 (stereo not drawn) (tested in a mixture with another compound)
inactive: dose: 100.0 mg/kg/injection, vehicle: Klucel (hydroxypropylcellulose) (HPC) 124 % of control | dose: 200.0 mg/kg/injection, vehicle: Klucel (hydroxypropylcellulose) (HPC) 114 % of control | dose: 400.0 mg/kg/injection, vehicle: Klucel (hydroxypropylcellulose) (HPC) 98 % of control

CC1CN1P1(N2CC2C)=NP(N2CC2C)(N2CC2C)=NP(N2CC2C)(N2CC2C)=N1 (stereo not drawn)
inactive: [10] 100 % of control | [11] 100 % of control | [12] 98 % of control | [8] 97 % of control | [9] 90 % of control
